Measurements taken from ChEMBL document CHEMBL1201862, “PubChem BioAssay data set” (2004).
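1) Cells in 96-well plates. 2) Compound, 48 h, 5 concentrations. 3) Linear interpolation between surrounding doses. 4) Unreached endpoint = highest concentration. GI50 marks 50% less growth.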 The source made the active and inactive calls. Rule as the data show it: active = GI50 up to about 1.1 µM and inactive = higher.

Tests used:
Assay in all cases: growth of human tumour cells (NCI), 48 h
SW-620 = test system: SW-620
MCF7 = test system: MCF7
NCI-H226 = test system: NCI-H226
HT-29 = test system: HT-29
SF-268 = test system: SF-268
SN12C = test system: SN12C
786-0 = test system: 786-0
SR = test system: SR
K562 = test system: K562
HOP-62 = test system: HOP-62
OVCAR-8 = test system: OVCAR-8
M14 = test system: M14
SF-539 = test system: SF-539
HOP-92 = test system: HOP-92
U-251 = test system: U-251
PC-3 = test system: PC-3
NCI-H522 = test system: NCI-H522
DU-145 = test system: DU-145
UO-31 = test system: UO-31
NCI/ADR-RES = test system: NCI/ADR-RES

Measured: GI50

O=C(O)c1ccc2c(c1C(=O)O)C(=O)OC2(c1ccc(O)cc1)c1ccc(O)cc1
inactive: SW-620 > 100 µM | MCF7 > 100 µM | NCI-H226 > 100 µM | HT-29 > 100 µM | SF-268 > 100 µM | SN12C > 100 µM | 786-0 > 100 µM | SR > 100 µM | K562 > 100 µM | HOP-62 > 100 µM | OVCAR-8 > 100 µM | M14 > 100 µM | SF-539 > 100 µM | HOP-92 > 100 µM | U-251 > 100 µM | PC-3 > 100 µM | NCI-H522 > 100 µM | DU-145 > 100 µM | UO-31 > 100 µM | NCI/ADR-RES > 100 µM

C/N=C(\N)N/N=C(\C)c1ccc2oc3ccc(/C(C)=N/N/C(N)=N/C)cc3c2c1
active: MCF7 1.05 µM
inactive: SW-620 2.22 µM | NCI-H226 2.08 µM | HT-29 1.73 µM | SF-268 2.09 µM | SN12C 2.46 µM | 786-0 2.86 µM | SR 1.51 µM | K562 2.15 µM | HOP-62 1.54 µM | OVCAR-8 9.27 µM | M14 3.24 µM | SF-539 1.62 µM | HOP-92 2.07 µM | U-251 1.61 µM | PC-3 3.01 µM | NCI-H522 1.67 µM | DU-145 2.35 µM | UO-31 6.31 µM | NCI/ADR-RES > 39.1 µM

CC(C)/C(Cl)=N\OC(=O)Nc1ccc(F)c([N+](=O)[O-])c1
inactive: SW-620 2.35 µM | MCF7 17.7 µM | NCI-H226 23.7 µM | HT-29 15.9 µM | SF-268 14.3 µM | SN12C 5.83 µM | 786-0 2.78 µM | SR 5.65 µM | K562 2.87 µM | HOP-62 17.8 µM | OVCAR-8 5.52 µM | M14 3.88 µM | SF-539 3 µM | HOP-92 2.22 µM | U-251 16.4 µM | PC-3 18.1 µM | DU-145 18.2 µM | UO-31 6.56 µM | NCI/ADR-RES 18.4 µM
active: NCI-H522 0.792 µM

O=C(Nc1cccc(Cl)c1)Nn1cnnc1
inactive: SW-620 > 100 µM | MCF7 > 100 µM | NCI-H226 > 100 µM | HT-29 > 100 µM | SF-268 > 100 µM | SN12C > 100 µM | 786-0 > 100 µM | SR > 100 µM | K562 > 100 µM | HOP-62 > 100 µM | OVCAR-8 > 100 µM | M14 > 100 µM | SF-539 > 100 µM | HOP-92 > 100 µM | U-251 > 100 µM | PC-3 > 100 µM | NCI-H522 > 100 µM | DU-145 > 100 µM | UO-31 > 100 µM | NCI/ADR-RES > 100 µM
